One series relates to Hepatitis C virus. As to the kind of experiment: Antiviral activity against HCV 1b N infected in human HuH7 cells assessed as inhibition of viral RNA replication after 3 days by RT-PCR analysis. The class given is functional, organism-based, Hepacivirus hominis. Conditions: genotype 1b strain N, Huh-7, 72 h.
A further series concerns Huh-7. As to the kind of experiment: Cytotoxicity against human HuH7 cells up to […]. In kind it is cell-based.

Molecules are shown by their SMILES.

Regarding `O=c1c(C2=NS(=O)(=O)c3ccccc3N2)c(O)c2ccccc2n1NC1CC1`, the EC50 with Hepatitis C virus turned out to be 100 nM.
For `NC(=O)COc1ccc2c(c1)S(=O)(=O)N=C(c1c(O)c3ccccc3n(NC3CCC3)c1=O)N2`, the EC50 with Hepatitis C virus was found to be 70 nM. Moreover, in the series with Huh-7, the Activity entry is “Non-toxic”.
For `O=c1c(C2=NS(=O)(=O)c3ccccc3N2)c(O)c2ccccc2n1NC1CCC1`, the EC50 in the series with Hepatitis C virus came out at 100 nM.

One may read the EC50 as the concentration at which the effect is half-maximal.

Source of the values: ChEMBL document CHEMBL1811761, “Recent advances in drug discovery of benzothiadiazine and related analogs as HCV NS5B polymerase inhibitors” (Bioorg Med Chem, 2011).
